Laboratory results: patent US20130072495A1, “FUSED BICYCLIC KINASE INHIBITORS” (OSI Pharmaceuticals, LLC, priority 2010, published 2013)

How the values were obtained:
Assay type in all cases: cell-based
[1] = system: MKN45 cells; experiment: MKN45 cell proliferation assay (CellTiter-Glo); conditions: Homo sapiens, MKN-45, 72 h; MKN45 cell line, 3 days incubation, at least duplicate experiments; read-out: Prolif. IC50
Experimental: The effect of inhibitors on the proliferation of MKN45 cells was determined using the following protocol. MKN45 cells were plated in Corning 3917 96-well white tissue culture treated plates in growth medium (RPMI, 10% FCS) at a density of 5000 cells/well in a total volume of 135 μL and incubated at 37° C., 5% CO2, 95% humidity overnight. The following day, one-tenth volume of a 10× concentration of compounds was added to the wells in an 8-point dilution series. The dilution series was composed of an initial 1:5 dilution of a 10 mM stock of compound in DMSO, followed by serial 1:4 dilutions in DMSO, then a 1:20 dilution in growth medium prior to the 1:10 dilution into the cell plate. Final DMSO concentration on the cells was 0.1%, there were control wells treated with both 0.1% DMSO and no DMSO. The typical dilution range is 10 μM to 0.6 nM. Once the compound was added to the cells, plates were incubated for 3 days at 37° C., 5% CO2 at 95% humidity. On the third day, after allowing all cells and reagents to come to room temperature, 25 μL of CellTiter-Glo reagent (Promega # G7573) was added to the wells. Plates were shaken on a platform for 10 minutes prior to reading luminescence for 0.1 seconds. The signal of the control wells was taken as 100% growth and growth inhibition was expressed as percent of control. IC50 values were determined from the percent of control data using a standard four-parameter model.
(§1) The IC50 values of exemplary compounds of the present invention determined in a cell proliferation assay using the MKN45 cell line according to the procedures described herein in at least duplicate experiments are abbreviated as follows and are shown in Table 1: A, IC50≦0.1 μM; B, 0.1 μM<IC50≦0.5 μM; C, 0.5 μM<IC50≦2 μM; D, IC50>2 μM; ND, not determined. The Example # of Table 1 corresponds to the compound example number as illustrated in the Experimental section above.
Treatment of this cell line with a selective MET inhibitor led to induction of apoptosis and inhibition of proliferation, whereas non-MET-amplified cell lines were not affected. Smolen et al., Proc. Natl. Acad. Sci. USA, 103(7):2316-2321 (2006). This cell line is thus “driven” by MET, and antiproliferative effects correlate very well with the inhibition of MET phosphorylation so that the cell proliferation IC50 values can be used as surrogate for the MET cell mechanistic IC50 values. Under the assay conditions described herein, the IC50 values correlate nearly 1:1.

[2] = target: T1, sfRON (Homo sapiens, UniProt Q04912); experiment: sfRON cell mechanistic assay (HeLa), phosphorylated RON levels; conditions: sfRON transfected HeLa cells, four hours incubation, at least duplicate experiments, read-out: sfRON mech IC50
T1 construct: expressed in transfected cells; host or cells: HeLa (transient transfection, Lipofectamine-2000, sfRON-pcDNA plasmid)
T1 sequence (Q04912 913-1400 limits assumed): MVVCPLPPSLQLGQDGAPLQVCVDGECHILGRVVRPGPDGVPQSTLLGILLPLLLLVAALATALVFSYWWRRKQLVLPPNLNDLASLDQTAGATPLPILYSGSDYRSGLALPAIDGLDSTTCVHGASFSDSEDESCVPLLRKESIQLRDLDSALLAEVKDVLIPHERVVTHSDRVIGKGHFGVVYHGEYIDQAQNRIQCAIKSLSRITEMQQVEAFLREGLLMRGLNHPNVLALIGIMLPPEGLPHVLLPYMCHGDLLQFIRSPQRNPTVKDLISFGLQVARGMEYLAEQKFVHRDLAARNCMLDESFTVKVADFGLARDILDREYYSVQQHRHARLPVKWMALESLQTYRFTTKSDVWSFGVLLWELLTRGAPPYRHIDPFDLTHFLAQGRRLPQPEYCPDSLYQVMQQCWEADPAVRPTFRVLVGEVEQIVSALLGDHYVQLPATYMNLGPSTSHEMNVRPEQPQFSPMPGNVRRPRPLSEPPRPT
Experimental: The cellular activity of the compounds of the present invention against RON may be determined by the following procedure. HeLa cells were plated in Falcon 3072 96-well plates in growth media (DMEM, 10% FBS, 1% L-glutamine) at a density of 10000 cells/well and incubated at 37° C., 5% CO2 overnight. The following day, cells were transfected with 0.2 μg sfRON-pcDNA plasmid DNA with 0.5 μL Lipofectamine-2000 per well in the presence of 50 μL OPTI-MEM, incubated at 37° C., 5% CO2 overnight. Costar 3915 96-well assay plates were coated with rabbit Anti-RON antibody at 2.0 μg/mL, sealed, and incubated overnight at 4° C. On the third day, coated plates were washed with PBS and blocked with 3% BSA. For the sfRON transfected cells, one-tenth volume of a 10× concentration of compounds was added to the wells in a 6-point dilution series. The dilution series was composed of an initial 1:5 dilution of a 10 mM DMSO stock solution of compound in DMSO, followed by a 1:10 dilution in growth media, for a final DMSO concentration on cells of 0.5%. Control wells were treated with 0.5% DMSO. The typical range of dilution was 10 μM to 3 nM. Once compound was added to the cells, plates were incubated for four hours at 37° C., 5% CO2. Plates were then washed in PBS, and lysed in triton-based lysis buffer. Lysates were transferred to the blocked capture plates. The phosphorylated RON levels were measured by incubating with a Goat polyclonal antibody against phosphorylated RON ([pYpY1238/1239]) followed by an anti-Goat antibody conjugated to HRP. Signal was measured on a Wallac Victor plate reader with luminance. The DMSO signal of the control wells was defined as 100% and the percent of inhibition of phosphorylated RON was expressed as percent of control. IC50 values were determined from the percent of control data using a standard four-parameter model.
The IC50 values of exemplary compounds of the present invention determined in a sfRON cell mechanistic assay using the HeLa cell line according to the procedures described herein in at least duplicate experiments are abbreviated as follows and are shown in Table 3: A, IC50≦0.1 μM; B, 0.1 μM<IC50≦0.5 μM; C, 0.5 μM<IC50≦1 μM; D, IC50>1 μM; ND, not determined. The Example # of Table 3 corresponds to the compound example number as illustrated in the Examples section.

[3] = target: T2, MET (Homo sapiens, UniProt P08581); experiment: MET cell mechanistic assay (MKN45), phosphorylated MET levels; conditions: MKN45 cell line, four hours incubation, at least duplicate experiments, read-out: MET mech IC50
T2 construct: endogenous in cells; host or cells: MKN45
T2 sequence (P08581 25-1390): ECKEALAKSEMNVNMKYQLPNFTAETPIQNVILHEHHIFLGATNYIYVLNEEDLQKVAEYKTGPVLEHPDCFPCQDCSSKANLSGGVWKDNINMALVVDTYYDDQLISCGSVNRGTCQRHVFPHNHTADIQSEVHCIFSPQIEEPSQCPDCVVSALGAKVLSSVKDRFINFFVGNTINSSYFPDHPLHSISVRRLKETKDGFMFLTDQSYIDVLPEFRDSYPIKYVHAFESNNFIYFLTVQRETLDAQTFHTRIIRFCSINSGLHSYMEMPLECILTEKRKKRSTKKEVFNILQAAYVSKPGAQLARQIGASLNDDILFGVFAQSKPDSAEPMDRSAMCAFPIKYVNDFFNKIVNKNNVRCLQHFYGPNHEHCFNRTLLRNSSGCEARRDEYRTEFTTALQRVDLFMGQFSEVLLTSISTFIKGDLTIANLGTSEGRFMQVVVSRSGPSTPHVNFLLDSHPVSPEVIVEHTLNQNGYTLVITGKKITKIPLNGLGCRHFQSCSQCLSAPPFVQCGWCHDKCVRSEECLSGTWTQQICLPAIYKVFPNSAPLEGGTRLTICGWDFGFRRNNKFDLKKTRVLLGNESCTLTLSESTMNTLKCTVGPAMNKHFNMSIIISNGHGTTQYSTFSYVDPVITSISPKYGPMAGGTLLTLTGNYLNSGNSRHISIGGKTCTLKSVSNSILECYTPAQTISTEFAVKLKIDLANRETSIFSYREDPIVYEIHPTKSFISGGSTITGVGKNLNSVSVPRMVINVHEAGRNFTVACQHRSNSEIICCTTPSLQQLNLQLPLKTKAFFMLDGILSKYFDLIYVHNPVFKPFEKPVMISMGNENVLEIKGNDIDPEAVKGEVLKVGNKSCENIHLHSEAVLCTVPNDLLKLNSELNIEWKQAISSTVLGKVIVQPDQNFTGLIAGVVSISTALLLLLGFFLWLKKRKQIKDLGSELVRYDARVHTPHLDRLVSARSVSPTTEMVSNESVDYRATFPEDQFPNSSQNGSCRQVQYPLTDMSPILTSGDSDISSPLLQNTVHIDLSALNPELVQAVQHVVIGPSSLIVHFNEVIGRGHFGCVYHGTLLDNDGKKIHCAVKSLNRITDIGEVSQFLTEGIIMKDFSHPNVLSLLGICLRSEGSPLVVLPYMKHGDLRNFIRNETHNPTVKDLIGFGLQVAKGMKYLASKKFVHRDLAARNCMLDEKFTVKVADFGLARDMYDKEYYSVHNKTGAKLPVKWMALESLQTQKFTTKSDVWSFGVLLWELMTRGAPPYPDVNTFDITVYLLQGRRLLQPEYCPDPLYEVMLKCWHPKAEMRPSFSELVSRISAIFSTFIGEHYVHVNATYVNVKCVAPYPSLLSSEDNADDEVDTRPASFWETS
Experimental: The cellular activity of the compounds of the present invention against MET may be determined by the following procedure. MKN45 cells were plated in Falcon 3072 96-well plates in growth media (RPMI, 10% FBS, 1% L-glutamine) at a density of 5000 cells/well and incubated at 37° C., 5% CO2 overnight. The following day, one-tenth volume of a 10× concentration of compounds was added to the wells in a 6-point dilution series. The dilutions series was composed of an initial […] in DMSO, followed by a […] in growth media, for a final DMSO concentration on cells of 0.5%. Control wells were treated with 0.5% DMSO. The typical range of dilution was 10 μM to 3 nM. Once compound was added to the cells, plates were incubated for four hours at 37° C., 5% CO2. Plates were then washed in PBS, and lysed in triton-based lysis buffer. Lysates were transferred to a precoated capture plate made by Biosource (Cat # KHO0281). The phosphorylated MET levels were measured by incubating with a rabbit polyclonal antibody against phosphorylated MET ([pYpYpY1230/1234/1235]) followed by an anti-rabbit antibody conjugated to HRP. Signal was measured on a Wallac Victor plate reader at 450 nm. The DMSO signal of the control wells was defined as 100% and the percent of inhibition of phosphorylated MET was expressed as percent of control. IC50 values were determined from the percent of control data using a standard four-parameter model.
as §1, with “in a MET cell mechanistic” for “in a cell proliferation”, “MET cell mechanistic assay using” for “a cell proliferation assay using”, “in Table 2: A, IC50≦0.1” for “in Table 1: A, IC50≦0.1”, “of Table 2 corresponds to” for “of Table 1 corresponds to”

IC50 [1]	IC50 [2]	Compound	IC50 [3]
500 to 2000 nM	> 1000 nM	C[C@H](c1c(Cl)ccc(F)c1Cl)n1ccc2ncc(-c3cnn(C)c3)cc21 [Example 4, 1-[(1R)-1-(2,6-dichloro-3-fluorophenyl)ethyl]-6-(1-methyl-1H-pyrazol-4-yl)-1H-pyrrolo[3,2-b]pyridine]	
		7-[(2,6-dichloro-3-fluorophenyl)methoxymethyl]-2-(1-piperidin-4-yl-1H-pyrazol-4-yl)-5H-pyrrolo[2,3-b]pyrazine [Example 1]	100 to 500 nM
100 to 500 nM	100 to 500 nM	C[C@H](c1c(Cl)ccc(F)c1Cl)n1ccc2ncc(-c3cnn([C@H]4CC[C@H](O)CC4)c3)cc21 [Example 7, trans-4-(4-{1-[(1R)-1-(2,6-Dichloro-3-fluorophenyl)ethyl]-1H-pyrrolo[3,2-b]pyridin-6-yl}-1H-pyrazol-1-yl)cyclohexanol]	
100 to 500 nM	500 to 1000 nM	C[C@H](c1c(Cl)ccc(F)c1Cl)n1ccc2ncc(-c3cnn(C4CCN(C=O)CC4)c3)cc21 [Example 6, 4-(4-{1-[(1R)-1-(2,6-Dichloro-3-fluorophenyl)ethyl]-1H-pyrrolo[3,2-b]pyridin-6-yl}-1H-pyrazol-1-yl)piperidine-1-carbaldehyde]	
100 to 500 nM		COc1ccc(F)c(Cl)c1[C@@H](C)c1n[nH]c2ncc(-c3cnn(C[C@H](O)CO)c3)cc12 [Example 13, (2S)-3-(4-{3-[(1R)-1-(2-chloro-3-fluoro-6-methoxyphenyl)ethyl]-1H-pyrazolo[3,4-b]pyridin-5-yl}-1H-pyrazol-1-yl)propane-1,2-diol]	
> 2000 nM		COc1ccc(F)c(Cl)c1[C@H](C)c1n[nH]c2ncc(-c3cnn([C@H]4CC[C@H](O)CC4)c3)cc12 [Example 11, trans-4-(4-{3-[(1S)-1-(2-Chloro-3-fluoro-6-methoxyphenyl)ethyl]-1H-pyrazolo[3,4-b]pyridin-5-yl}-1H-pyrazol-1-yl)cyclohexanol]	
> 2000 nM		CC(c1c(Cl)ccc(F)c1Cl)c1c[nH]c2nnc(-c3cnn(C)c3)cc12 (stereo not shown) [Example 15, 5-[1-(2,6-Dichloro-3-fluorophenyl)ethyl]-3-(1-methyl-1H-pyrazol-4-yl)-7H-pyrrolo[2,3-c]pyridazine]	
100 to 500 nM	500 to 1000 nM	C[C@H](c1c(Cl)ccc(F)c1Cl)n1ccc2ncc(-c3cnn(C[C@H](O)CO)c3)cc21 [Example 8, (2S)-3-(4-{1-[(1R)-1-(2,6-Dichloro-3-fluorophenyl)ethyl]-1H-pyrrolo[3,2-b]pyridin-6-yl}-1H-pyrazol-1-yl)propane-1,2-diol]	
≤ 100 nM	500 to 1000 nM	C[C@H](c1c(Cl)ccc(F)c1Cl)n1ccc2ncc(-c3cnn(C4CCNCC4)c3)cc21 [Example 5, 1-[(1R)-1-(2,6-Dichloro-3-fluorophenyl)ethyl]-6-[1-(piperidin-4-yl)-1H-pyrazol-4-yl]-1H-pyrrolo[3,2-b]pyridine]	
100 to 500 nM		COc1ccc(F)c(Cl)c1[C@@H](C)c1n[nH]c2ncc(-c3cnn(C)c3)cc12 [Example 14, 3-[(1R)-1-(2-chloro-3-fluoro-6-methoxyphenyl)ethyl]-5-(1-methyl-1H-pyrazol-4-yl)-1H-pyrazolo[3,4-b]pyridine]	
≤ 100 nM		COc1ccc(F)c(Cl)c1[C@@H](C)c1n[nH]c2ncc(-c3cnn(C4CCNCC4)c3)cc12 [Example 12, 3-[(1R)-1-(2-chloro-3-fluoro-6-methoxyphenyl)ethyl]-5-[1-(piperidin-4-yl)-1H-pyrazol-4-yl]-1H-pyrazolo[3,4-b]pyridine]	
≤ 100 nM	100 to 500 nM	COc1ccc(F)c(Cl)c1[C@@H](C)c1n[nH]c2ncc(-c3cnn([C@H]4CC[C@H](O)CC4)c3)cc12 [Example 10, trans-4-(4-{3-[(1R)-1-(2-Chloro-3-fluoro-6-methoxyphenyl)ethyl]-1H-pyrazolo[3,4-b]pyridin-5-yl}-1H-pyrazol-1-yl)cyclohexanol]	
≤ 100 nM		COc1ccc(F)c(Cl)c1C(C)c1n[nH]c2ncc(-c3cnn([C@H]4CC[C@H](O)CC4)c3)cc12 (relative stereo) [Example 9, trans-4-(4-{3-[1-(2-Chloro-3-fluoro-6-methoxyphenyl)ethyl]-1H-pyrazolo[3,4-b]pyridin-5-yl}-1H-pyrazol-1-yl)cyclohexanol]	
